Patent US20250115598A1 (Anaxis Pharma Pty Ltd, priority 2021, published 2025)

Experiments:
human RIPK3 = human RIPK3 (Homo sapiens (Human), UniProt Q9Y572); assay: KINOMEscan binding assay, human RIPK3; settings: Table 21
Method in brief: (§1)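 Assay principle: test compound competes with immobilized bead ligand for kinase; kinase retained, then eluted, is counted by qPCR. Conditions were 1% DMSO final with 11 compound concentrations in 3-fold steps, 30,000 nM top for most. The Hill equation with slope −1 gave Kd.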

human RIPK1 = human RIPK1 (Homo sapiens (Human), UniProt Q13546); assay: KINOMEscan binding assay, human RIPK1; settings: Table 21
human RIPK1, sequence (Q13546 whole entry): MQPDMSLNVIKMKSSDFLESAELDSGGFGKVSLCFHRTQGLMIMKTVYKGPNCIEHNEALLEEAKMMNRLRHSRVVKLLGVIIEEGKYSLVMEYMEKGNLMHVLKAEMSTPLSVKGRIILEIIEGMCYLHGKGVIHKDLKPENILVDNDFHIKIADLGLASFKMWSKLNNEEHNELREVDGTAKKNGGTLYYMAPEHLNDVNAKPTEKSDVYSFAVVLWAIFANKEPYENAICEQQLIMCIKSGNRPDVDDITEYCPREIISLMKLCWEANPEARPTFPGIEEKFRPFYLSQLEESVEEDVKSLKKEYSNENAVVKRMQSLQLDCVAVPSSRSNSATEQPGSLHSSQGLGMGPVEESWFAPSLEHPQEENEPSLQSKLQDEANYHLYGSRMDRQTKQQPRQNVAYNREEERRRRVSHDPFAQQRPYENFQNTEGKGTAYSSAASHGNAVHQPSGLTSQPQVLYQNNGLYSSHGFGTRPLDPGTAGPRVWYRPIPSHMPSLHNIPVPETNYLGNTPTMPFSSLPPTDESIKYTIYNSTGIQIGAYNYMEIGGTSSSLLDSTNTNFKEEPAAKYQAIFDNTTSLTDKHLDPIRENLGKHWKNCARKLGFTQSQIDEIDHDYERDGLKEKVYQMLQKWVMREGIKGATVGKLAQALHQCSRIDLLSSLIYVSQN
Method in brief: as §1

human MLKL (full length) = human MLKL (full length) (Homo sapiens (Human), UniProt Q8NB16); assay: KINOMEscan binding assay, human MLKL (full length); settings: KINOMEscan, Table 21; read-out: Human MLKL (full-length) (KD)
human MLKL (full length), sequence (Q8NB16 whole entry): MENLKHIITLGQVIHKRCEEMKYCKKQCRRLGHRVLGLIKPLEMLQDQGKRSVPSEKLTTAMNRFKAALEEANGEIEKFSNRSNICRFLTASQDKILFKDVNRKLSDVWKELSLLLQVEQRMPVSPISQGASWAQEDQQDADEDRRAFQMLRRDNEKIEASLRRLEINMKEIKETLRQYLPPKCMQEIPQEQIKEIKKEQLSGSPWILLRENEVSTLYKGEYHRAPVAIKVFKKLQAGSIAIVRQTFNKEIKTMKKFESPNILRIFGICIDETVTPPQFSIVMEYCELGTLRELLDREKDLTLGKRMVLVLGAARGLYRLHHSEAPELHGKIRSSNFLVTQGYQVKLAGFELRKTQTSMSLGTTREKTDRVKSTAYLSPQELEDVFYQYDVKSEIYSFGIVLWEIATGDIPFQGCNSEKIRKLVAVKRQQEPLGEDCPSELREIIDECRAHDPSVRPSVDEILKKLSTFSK
Method in brief: as §1

human RIPK3, sequence (Q9Y572 whole entry): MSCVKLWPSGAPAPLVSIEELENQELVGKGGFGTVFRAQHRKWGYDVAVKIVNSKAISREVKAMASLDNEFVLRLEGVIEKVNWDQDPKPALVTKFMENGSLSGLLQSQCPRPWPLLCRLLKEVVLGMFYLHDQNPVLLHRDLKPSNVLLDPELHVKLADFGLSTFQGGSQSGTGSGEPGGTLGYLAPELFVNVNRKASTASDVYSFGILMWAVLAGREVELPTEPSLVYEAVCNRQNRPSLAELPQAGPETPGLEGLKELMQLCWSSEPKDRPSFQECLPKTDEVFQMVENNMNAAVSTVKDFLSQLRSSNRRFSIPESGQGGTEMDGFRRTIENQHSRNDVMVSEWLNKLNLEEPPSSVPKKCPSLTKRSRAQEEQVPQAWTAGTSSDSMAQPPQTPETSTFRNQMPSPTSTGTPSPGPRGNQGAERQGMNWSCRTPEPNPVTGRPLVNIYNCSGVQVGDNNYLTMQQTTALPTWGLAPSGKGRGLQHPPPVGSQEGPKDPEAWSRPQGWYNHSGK

Row | Compound | Kd (human RIPK3) [µM] | Kd (human RIPK1) [µM] | Kd (human MLKL (full length)) [µM]
1 | C[C@H](Oc1cc(-c2nn(C)c3c(-c4cccnc4)cnc(N)c23)ccc1NS(=O)(=O)C(F)F)c1ccc(F)cc1 [Compound 25, (S)-N-(4-(4-amino-1-methyl-7-(pyridin-3-yl)-1H-pyrazolo[4,3-c]pyridin-3-yl)-2-(1-(4-fluorophenyl)ethoxy)phenyl)-1,1-difluoromethanesulfonamide] | > 10 | > 10 | < 0.001
2 | C[C@H](Oc1cc(-c2nn(C)c3c(-c4cnn(C5CN(CC(F)(F)F)C5)c4)cnc(N)c23)ccc1NS(=O)(=O)C(F)F)c1ccc(F)cc1 [Compound 77, (S)-N-(4-(4-amino-1-methyl-7-(1-(1-(2,2,2-trifluoroethyl)azetidin-3-yl)-1H-pyrazol-4-yl)-1H-pyrazolo[4,3-c]pyridin-3-yl)-2-(1-(4-fluorophenyl)ethoxy)phenyl)-1,1-difluoromethanesulfonamide] | > 10 | > 10 | < 0.001
3 | Nc1n[nH]c2nccc(-c3ccc(NS(=O)(=O)CC(F)(F)F)c(OCc4ccc(F)cc4)c3)c12 [Compound 67, N-(4-(3-Amino-1H-pyrazolo[3,4-b]pyridin-4-yl)-2-((4-fluorophenyl)methoxy)phenyl)-2,2,2-trifluoroethane-1-sulfonamide] | > 10 | > 10 | < 0.001
4 | C[C@H](Oc1cc(-c2cnn3c(-c4ccncc4)cnc(N)c23)ccc1NS(=O)(=O)C(F)F)c1ccc(F)cc1 [Compound 39, (S)-N-(4-(4-amino-7-(pyridin-4-yl)pyrazolo[1,5-a]pyrazin-3-yl)-2-(1-(4-fluoro-phenyl)ethoxy)phenyl)-1,1-difluoromethane-sulfonamide] | > 10 | > 10 | < 0.001
5 | C[C@H](Oc1cc(-c2ccnc3[nH]nc(N)c23)ccc1NS(=O)(=O)C(F)F)c1ccc(F)cc1 [Compound 72, N-(4-(3-Amino-1H-pyrazolo[3,4-b]pyridin-4-yl)-2-((1 S)-1-(4-fluorophenyl)ethoxy)phenyl)-1,1-difluoromethanesulfonamide] | > 10 | > 10 | < 0.001
6 | Nc1n[nH]c2ncnc(-c3ccc(NS(=O)(=O)C(F)F)c(OCc4ccc(F)cc4)c3)c12 [Compound 69, N-(4-(3-Amino-1H-pyrazolo[3,4-d]pyrimidin-4-yl)-2-((4-fluorophenyl)methoxy)phenyl)-1,1-difluoromethanesulfonamide] | > 10 | > 10 | < 0.001
7 | CC(C)N1CC(n2cc(-c3cnc(N)c4c(-c5ccc(NS(=O)(=O)C(F)F)c(O[C@@H](C)c6ccc(F)cc6)c5)nn(C)c34)cn2)C1 [Compound 76, (S)-N-(4-(4-amino-7-(1-(1-isopropylazetidin-3-yl)-1H-pyrazol-4-yl)-1-methyl-1H-pyrazolo[4,3-c]pyridin-3-yl)-2-(1-(4-fluorophenyl)ethoxy)phenyl)-1,1-difluoromethanesulfonamide] | > 10 | > 10 | < 0.001
8 | Cn1cc(-c2cnc(N)c3c(-c4ccc(NS(=O)(=O)C(F)F)c(OCc5ccc(F)cc5)c4)nn(C)c23)cn1 [Compound 16, N-(4-(4-amino-1-methyl-7-(1-methyl-1H-pyrazol-4-yl)-1H-pyrazolo[4,3-c]pyridin-3-yl)-2-((4-fluoro-benzyl)oxy)phenyl)-1,1-difluoromethane-sulfonamide] | > 10 | > 10 | < 0.001
9 | C[C@H](Oc1cc(-c2nn(C)c3c(-c4cnn(C5CCOC5)c4)cnc(N)c23)ccc1NS(=O)(=O)C(F)F)c1ccc(F)cc1 (stereo partly drawn) [Compound 41, N-(4-(4-amino-1-methyl-7-(1-(tetrahydrofuran-3-yl)-1H-pyrazol-4-yl)-1H-pyrazolo[4,3-c]pyridin-3-yl)-2-((S)-1-(4-fluorophenyl)ethoxy)phenyl)-1,1-difluoromethanesulfonamide] | > 10 | > 10 | < 0.001

More lines, now with the values ahead:

Row | Kd (human RIPK3) [µM] | Kd (human RIPK1) [µM] | Kd (human MLKL (full length)) [µM] | Compound
10 | > 10 | > 10 | < 0.001 | [2H]C([2H])([2H])N1CCC(n2cc(-c3cnc(N)c4c(-c5ccc(NS(=O)(=O)C(F)F)c(O[C@@H](C)c6ccc(F)cc6)c5)nn(C)c34)cn2)CC1 [Compound 103, (S)-N-(4-(4-amino-1-methyl-7-(1-(1-(methyl-d3)piperidin-4-yl)-1H-pyrazol-4-yl)-1H-pyrazolo[4,3-c]pyridin-3-yl)-2-(1-(4-fluorophenyl)ethoxy)phenyl)-1,1-difluoromethanesulfonamide]
11 | > 10 | > 10 | < 0.001 | C[C@H](Oc1cc(-c2nn(C)c3c(-c4cnc(N5CCOCC5)nc4)cnc(N)c23)ccc1NS(=O)(=O)C(F)F)c1ccc(F)cc1 [Compound 110, (S)-N-(4-(4-amino-1-methyl-7-(2-morpholinopyrimidin-5-yl)-1H-pyrazolo[4,3-c]pyridin-3-yl)-2-(1-(4-fluorophenyl)ethoxy)phenyl)-1,1-difluoromethanesulfonamide]
12 | > 10 | > 10 | < 0.001 | C[C@H](Oc1cc(-c2nn(C)c3c(-c4cnn(C5C[C@@H]6CN(C)C[C@@H]6C5)c4)cnc(N)c23)ccc1NS(=O)(=O)C(F)F)c1ccc(F)cc1 (stereo partly drawn) [Compound 164, N-(4-(4-amino-1-methyl-7-(1-((3aR,6aS)-2-methyloctahydrocyclo-penta[c]pyrrol-5-yl)-1H-pyrazol-4-yl)-1H-pyrazolo[4,3-c]pyridin-3-yl)-2-((S)-1-(4-fluorophenyl)eth-oxy)phenyl)-1,1-difluoromethane-sulfonamide]
13 | > 10 | > 10 | < 0.001 | C[C@H](Oc1cc(-c2nn(C)c3c(-c4cnn(CCN(C)C)c4)cnc(N)c23)ccc1NS(=O)(=O)C(F)F)c1ccc(F)cc1 [Compound 100, (S)-N-(4-(4-amino-7-(1-(2-(dimethylamino)ethyl)-1H-pyrazol-4-yl)-1-methyl-1H-pyrazolo[4,3-c]pyridin-3-yl)-2-(1-(4-fluorophenyl)ethoxy)phenyl)-1,1-difluoromethanesulfonamide]
14 | > 10 | > 10 | < 0.001 | CC(C)N(C)C(=O)C(C)n1cc(-c2cnc(N)c3c(-c4ccc(NS(=O)(=O)C(F)F)c(O[C@@H](C)c5ccc(F)cc5)c4)nn(C)c23)cn1 (stereo partly drawn) [Compound 81, 2-(4-(4-amino-3-(4-((difluoromethyl)sulfonamido)-3-((S)-1-(4-fluorophenyl)ethoxy)phenyl)-1-methyl-1H-pyrazolo[4,3-c]pyridin-7-yl)-1H-pyrazol-1-yl)-N-isopropyl-N-methylpropanamide]
15 | > 10 | > 10 | < 0.001 | CC(C)Oc1cc(-c2nn(C)c3c(-c4cnn(C5CCOCC5)c4)cnc(N)c23)ccc1NS(=O)(=O)C(F)F [Compound 144, N-(4-(4-amino-1-methyl-7-(1-(tetrahydro-2H-pyran-4-yl)-1H-pyrazol-4-yl)-1H-pyrazolo[4,3-c]pyridin-3-yl)-2-isopropoxy-phenyl)-1,1-difluoromethane-sulfonamide]
16 | > 10 | > 10 | < 0.001 | Cn1nc(-c2ccc(NS(=O)(=O)C(F)F)c(OCc3nccs3)c2)c2c(N)ncc(-c3cnn(C4CCOCC4)c3)c21 [Compound 143, N-(4-(4-amino-1-methyl-7-(1-(tetrahydro-2H-pyran-4-yl)-1H-pyrazol-4-yl)-1H-pyrazolo[4,3-c]pyridin-3-yl)-2-(thiazol-2-yl-methoxy)phenyl)-1,1-difluoromethane-sulfonamide]
